“And” between values parts separate entries of the source, which are not always exact repeats. Equal entries are not always repeated. Toxic doses and inconclusive results are not listed. The calls were made as follows: active = survival T/C of 150% or more; inactive = T/C below 125% in these data.
Test system: CD2F1 mice, L1210 leukemia ip, survival T/C
Assay: NCI In Vivo Anticancer Drug Screen. Data for tumor model L1210 Leukemia (intraperitoneal) in CD2F1 (CDF1) mice
Details: endpoint: mean survival time, higher = longer survival
In short: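 Antitumor effect is scored in animals hosting a serially transplanted tumor. Values compare compound-dosed animals against vehicle-only controls as a simple quotient.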

[1] = dose: 100.0 mg/kg/injection, schedule: Q01DX001 (ip), vehicle: saline with Tween-80
[2] = dose: 200.0 mg/kg/injection, schedule: Q01DX001 (ip), vehicle: saline with Tween-80
[3] = dose: 400.0 mg/kg/injection, schedule: Q01DX001 (ip), vehicle: saline with Tween-80
[4] = dose: 100.0 mg/kg/injection, schedule: Q01DX009 (ip), vehicle: saline with Tween-80
[5] = dose: 200.0 mg/kg/injection, schedule: Q01DX009 (ip), vehicle: saline with Tween-80
[6] = dose: 400.0 mg/kg/injection, schedule: Q01DX009 (ip), vehicle: saline with Tween-80
[7] = dose: 100.0 mg/kg/injection, schedule: Q04DX003 (ip), vehicle: saline with Tween-80
[8] = dose: 200.0 mg/kg/injection, schedule: Q04DX003 (ip), vehicle: saline with Tween-80
[9] = dose: 50.0 mg/kg/injection, schedule: Q01DX009 (ip), vehicle: saline with Tween-80
[10] = dose: 12.5 mg/kg/injection, schedule: Q01DX009 (ip), vehicle: saline
[11] = dose: 25.0 mg/kg/injection, schedule: Q01DX009 (ip), vehicle: saline
[12] = dose: 100.0 mg/kg/injection, schedule: Q04DX003 (ip), vehicle: saline
[13] = dose: 200.0 mg/kg/injection, schedule: Q04DX003 (ip), vehicle: saline
[14] = dose: 400.0 mg/kg/injection, schedule: Q04DX003 (ip), vehicle: saline

Measured: T/C

CNC(=O)Oc1cccc(NC(=O)OCCC(C)C)c1
inactive: [1] 96 % of control | [2] 93 % of control | [3] 96 % of control

COc1ccc(-n2c(=S)[nH]c3ccc(C)cc3c2=O)cc1
inactive: [4] 97 % of control | [5] 100 % of control | [6] 91 % of control

CCCCC(C(=O)OCC)C1=NC(C)(C)CC(C)O1 (stereo not drawn)
inactive: dose: 100.0 mg/kg/injection, schedule: Q01DX009 (ip), vehicle: saline 98 % of control | dose: 100.0 mg/kg/injection, schedule: Q04DX003 (ip), vehicle: acetone 101 % of control | dose: 200.0 mg/kg/injection, schedule: Q01DX009 (ip), vehicle: saline 97 % of control | dose: 200.0 mg/kg/injection, schedule: Q04DX003 (ip), vehicle: acetone 90 % of control | dose: 400.0 mg/kg/injection, schedule: Q01DX009 (ip), vehicle: saline 97 % of control | dose: 400.0 mg/kg/injection, schedule: Q04DX003 (ip), vehicle: acetone 91 % of control

CCCCCc1ccc(C(C)=O)cc1
inactive: [4] 103 % of control | [5] 103 % of control | [6] 88 % of control

COC(=O)Nc1cc2c3c(c1)CCCN3CCC2
inactive: [7] 104 % of control | [8] 93 % of control

CCCc1ccc(C(C)=O)cc1
inactive: dose: 75.0 mg/kg/injection, schedule: Q04DX002 (ip), vehicle: saline with Tween-80 112 % of control | dose: 150.0 mg/kg/injection, schedule: Q04DX002 (ip), vehicle: saline with Tween-80 100 % of control

C/C(=N/O)[c-]1[c-][c-][c-][c-]1.[Fe].[c-]1[c-][c-][cH-][c-]1
inactive: [9] 97 % of control | [1] 95 % of control | [4] 94 % of control | [2] 101 % of control

O=C(NC(CO)C(O)c1ccc([N+](=O)[O-])cc1)C(Cl)Cl (stereo not drawn)
inactive: [4] 96 % of control | [5] 104 % of control | [6] 110 % of control

CCOP(=O)(OCC)OC(C)C#N (stereo not drawn)
inactive: [10] 97 % of control | [11] 97 % of control

CC(=O)O.CC(=O)O.CC(=O)O.CC(=O)O.[Rh].[Rh]
inactive: dose: 6.25 mg/kg/injection, schedule: Q01DX009 (ip), vehicle: saline 110 % of control | [10] 116 % of control | [11] 100 % of control

CC1CCN1Cc1ccccc1 (stereo not drawn)
inactive: dose: 12.5 mg/kg/injection, schedule: Q01DX009 (ip), vehicle: acetone 98 % of control | dose: 25.0 mg/kg/injection, schedule: Q01DX009 (ip), vehicle: acetone 98 % of control | dose: 50.0 mg/kg/injection, schedule: Q01DX009 (ip), vehicle: acetone 95 % of control

COc1ccc(-n2c(=O)[nH]c3c(c2=O)C(c2ccc(Cl)cc2)C(C)(C)O3)cc1 (stereo not drawn)
inactive: dose: 100.0 mg/kg/injection, schedule: Q04DX002 (ip), vehicle: saline with Tween-80 100 % of control | dose: 200.0 mg/kg/injection, schedule: Q04DX002 (ip), vehicle: saline with Tween-80 95 % of control | dose: 400.0 mg/kg/injection, schedule: Q04DX002 (ip), vehicle: saline with Tween-80 103 % of control

N#C/C(=C/C=C/c1ccccc1)c1ccc([N+](=O)[O-])cc1
inactive: dose: 100.0 mg/kg/injection, schedule: Q04DX002 (ip), vehicle: other 111 % of control | dose: 200.0 mg/kg/injection, schedule: Q04DX002 (ip), vehicle: other 100 % of control | dose: 400.0 mg/kg/injection, schedule: Q04DX002 (ip), vehicle: other 96 % of control

O=C1C(c2ccccc2)=C(c2ccccc2)C(c2ccccc2)=C1c1ccccc1
inactive: [9] 95 % of control | [1] 97 % of control | [4] 91 % of control | [2] 87 % of control | [5] 88 % of control | [3] 91 % of control

CCOc1nnc(-c2ccccc2)o1
inactive: dose: 12.5 mg/kg/injection, schedule: Q01DX009 (ip), vehicle: other 92 % of control | dose: 25.0 mg/kg/injection, schedule: Q01DX009 (ip), vehicle: other 96 % of control | dose: 50.0 mg/kg/injection, schedule: Q01DX009 (ip), vehicle: other 97 % of control | dose: 100.0 mg/kg/injection, schedule: Q01DX009 (ip), vehicle: other 100 % of control | dose: 200.0 mg/kg/injection, schedule: Q01DX009 (ip), vehicle: other 97 % of control

NCCNCC(=O)O
inactive: [12] 97 % of control | [13] 93 % of control | [14] 97 % of control

CN1CCC(Br)(C(=O)c2ccccc2)CC1
inactive: dose: 37.5 mg/kg/injection, schedule: Q01DX009 (ip), vehicle: saline with Tween-80 100 % of control | dose: 75.0 mg/kg/injection, schedule: Q01DX009 (ip), vehicle: saline with Tween-80 95 % of control | dose: 75.0 mg/kg/injection, schedule: Q04DX003 (ip), vehicle: saline with Tween-80 97 % of control | dose: 150.0 mg/kg/injection, schedule: Q01DX009 (ip), vehicle: saline with Tween-80 92 % of control | dose: 150.0 mg/kg/injection, schedule: Q04DX003 (ip), vehicle: saline with Tween-80 98 % of control

CC(C)(C)OC(=O)N1CCCC1C(=O)Oc1ccc([N+](=O)[O-])cc1 (stereo not drawn)
inactive: dose: 25.0 mg/kg/injection, schedule: Q04DX003 (ip), vehicle: saline with Tween-80 98 % of control | dose: 50.0 mg/kg/injection, schedule: Q04DX003 (ip), vehicle: saline with Tween-80 95 % of control | [7] 92 % of control and 93 % of control

CC(=O)Nc1ncc2ccccc2c1-c1ccc(NC(=O)CCN(CCCl)CCCl)cc1
inactive: dose: 6.25 mg/kg/injection, schedule: Q04DX003 (ip), vehicle: other 101 % of control | dose: 12.5 mg/kg/injection, schedule: Q04DX003 (ip), vehicle: other 111 % of control | dose: 25.0 mg/kg/injection, schedule: Q04DX003 (ip), vehicle: other 112 % of control

CC(C)=[C-]N(C)C.[C-]#[O+].[C-]#[O+].[C-]#[O+].[C-]#[O+].[C-]#[O+].[Mn]
inactive: dose: 12.5 mg/kg/injection, schedule: Q04DX002 (ip), vehicle: saline with Tween-80 110 % of control | dose: 25.0 mg/kg/injection, schedule: Q04DX002 (ip), vehicle: saline with Tween-80 103 % of control

CC(=O)Nc1c([N+](=O)[O-])cc2c3c(cccc13)CC2
inactive: [4] 102 % of control | [7] 100 % of control | [5] 97 % of control | [8] 102 % of control | [6] 97 % of control | dose: 400.0 mg/kg/injection, schedule: Q04DX003 (ip), vehicle: saline with Tween-80 100 % of control

O=NN(CCCCCSCCCl)C(=O)NC1CCCCC1
inactive: dose: 6.25 mg/kg/injection, schedule: Q01DX001 (ip), vehicle: distilled water + Tween-80 101 % of control | dose: 12.5 mg/kg/injection, schedule: Q01DX001 (ip), vehicle: distilled water + Tween-80 101 % of control | dose: 25.0 mg/kg/injection, schedule: Q01DX001 (ip), vehicle: distilled water + Tween-80 107 % of control | dose: 50.0 mg/kg/injection, schedule: Q01DX001 (ip), vehicle: distilled water + Tween-80 104 % of control | dose: 100.0 mg/kg/injection, schedule: Q01DX001 (ip), vehicle: distilled water + Tween-80 104 % of control | dose: 200.0 mg/kg/injection, schedule: Q01DX001 (ip), vehicle: distilled water + Tween-80 108 % of control | dose: 400.0 mg/kg/injection, schedule: Q01DX001 (ip), vehicle: distilled water + Tween-80 118 % of control

CC(C)(C)C(=O)CC(O)(C(F)(F)F)C(F)(F)F
inactive: [12] 100 % of control | [13] 97 % of control | [14] 100 % of control

Reference: PubChem BioAssay AID256 (DTP/NCI, 2004)
